Experimental data published in patent publication EP0354522A1, “Use of alpha-aminoboronic acid derivatives in prevention and treatement of viral diseases” (HOECHST AKTIENGESELLSCHAFT, priority 1988, dated 1990).

Target: T1, HIV-Protease (Human immunodeficiency virus type 1 group M subtype B, UniProt P04585)
T1 construct: Max-Planck-Institut für Molekulare Genetik, Berlin
Assay: HIV protease test (cleavage of heptapeptide Ser-Phe-Asn-Phe-Pro-Gln-Ile, HPLC quantification of Ser-Phe-Asn-Phe)
Format: biochemical
Details: 2 h, 37°C; for activity at 100 µM / Restakt. bei 10^-4 M: residual enzyme activity at 10^-4 M inhibitor, 100 % = mean of runs without inhibitor, pH ca. 6,0, 1 % DMSO; for activity at 100 µM: read-out: Restakt. bei 10^-4 M; for IC50: cloned HIV protease, pH ca. 6,0; for Restakt. bei 10^-4 M: 100 µM
Source text: Als synthetisches Substrat ist ein Heptapeptid der Sequenz Ser-Phe-Asn-Phe-Pro-Gln-Ile geeignet. Diese Sequenz tritt im natürlichen Substrat der Protease auf und liefert bei der autokatalytischen Freisetzung nach einer Phe-Pro-Spaltung den N-terminalen Beginn der Proteasesequenz (Pro-Gln-Ile...).
Es wird eine klonierte HIV-Protease (Max-Planck-Institut für Molekulare Genetik, Berlin) benutzt. [drawing 5]
Von den Reaktionsprodukten wird Ser-Phe-Asn-Phe zur Abtrennung und quantitativen Bestimmung mittels HPLC herangezogen.
Nach 2 Stunden bei 37°C werden die Ansätze mit 225 µl HPLC-Elutionsmittel (s.u.) gestoppt. Etwa 150 µl des zentrifugierten Überstands (Eppendorf-Zentrifuge) werden in Mikrovials gefüllt. Das Injektionsvolumen für die HPLC-Trennung beträgt 20 µl. Ser-Phe-Asn-Phe wird durch Vergleich mit einem externen Standard bekannter Konzentration (0,5 µg/ 20 µl) quantitativ bestimmt und stellt die Meßgröße der Enzymaktivität (µg Tetrapeptid pro 20 µl Meßprobe) dar. Bezugswert (= 100 % Enzymaktivität) ist der Mittelwert aus 2 oder mehr Ansätzen ohne Inhibitor. Als Standard-Inhibitor wird Pepstatin A (10⁻⁴ oder 10⁻⁵ M) verwendet.
• a) Substratlösung: 2 mg Ser-Phe-Asn-Phe-Pro-Gln-Ile werden in 1 ml MGTE 15-Puffer gelöst. • b) Testsubstanzen: Diese werden 10⁻² oder 10⁻³ M in Dimethylsulfoxid (DMSO) gelöst und 1 : 40 mit MGTE 15-Puffer verdünnt; 10 µl dieser Lösung werden pro Ansatz verwendet; die Endkonzentration des Präparates beträgt 10⁻⁴ bzw. 10⁻⁵ M; die DMSO-Konzentration in allen Testansätzen ist 1 %. Für IC₅₀-Bestimmungen wird das Präparat, ausgehend von 10⁻² M, mit 100 % DMSO in der geeigneten Weise verdünnt. • c) Proteaselösung: Das Enzym wird mit MGTE 25-Puffer auf eine geeignete Konzentration verdünnt. • d) MGTE 15/25-Puffer 20 mM Morpholinoethansulfonsäure (MES) 15 (25) % (w/v) Glyzerin 0,1 % (v/v) Triton® X 100 (vgl. Merck Index 10, 6601) 5 mM EDTA 0,5 M NaCl 1 mM Dithiothreit (nur für MGTE 25) 1 mM Phenylmethylsulfonylfluorid (PMSF) Der pH-Wert soll ca. 6,0 betragen. • e) HPLC-Elutionsmittel: Eine 0,1 M Phosphorsäure-Lösung wird mit Triethylamin auf pH 2,5 eingestellt. Aus dieser Lösung wird ein Phosphorsäure-Acetonitril-Gemisch mit 22,6 Gewichts-Prozent Acetonitril hergestellt.
Säule: Radial Pak LC Cartridge, 8 mm/C18, 5 µ (der Fa. Waters, USA). Fluß: 1 ml/min Detektoreinstellung: 215 nm, 0,08 AU Zeit pro Analyse: 12 min; Retentionszeiten: Heptapeptid ca. 9,5 min, Tetrapeptid ca. 5,2 min Laufmittel: 77,4 Gew.-% 0,1 M H₃PO₄/pH 2,5 22,6 Gew.-% Acetonitril

activity at 100 µM	IC50	Restakt. bei 10^-4 M	Compound
70%			CC(C)CC(=O)N[C@@H](Cc1ccccc1)C(=O)N(C)[C@@H](Cc1ccccc1)C(=O)NC(CC1CCCCC1)B1OC(C)(C)C(C)(C)O1 (some centres unmarked) [Beispiel 16]
22%	40 µM		CCC[C@H](NC(=O)C(Cc1ccccc1)CS(=O)(=O)C(C)(C)C)C(=O)NC(CC1CCCCC1)B1OC(C)(C)C(C)(C)O1 (some centres unmarked) [Beispiel 35, (2-Benzyl,3-t-butylsulfonyl)propionyl-Nva-[Cyclohexylmethyl,(4,4,5,5-tetramethyl-1,3,2-dioxaborolan-2-yl)]methylamid]
46%			CCC[C@H](NC(=O)C(Cc1ccccc1)CS(=O)(=O)C(C)(C)C)C(=O)NC(CC(CC)CC)B1OC(C)(C)C(C)(C)O1 (some centres unmarked) [Beispiel 49, (2-Benzyl,3-t-butylsulfonyl)propionyl-Nva-[3-Ethyl,1-(4,4,5,5-tetramethyl-1,3,2-dioxaborolan-2-yl)]pentylamid]
	70 µM	38%	Iva-Phe-Nva-(Cyclohexylmethyl,dihydroxyboryl)methylamid [Beispiel 5]
77%			CCC[C@H](NC(=O)[C@H](Cc1ccccc1)NC(=O)CC(C)C)C(=O)NC(Cc1cccc2ccccc12)B1OC(C)(C)C(C)(C)O1 (stereo partly drawn) [Beispiel 10, Iva-Phe-Nva-[(1-Naphthylmethyl),(4,4,5,5-tetramethyl-1,3,2-dioxaborolan-2-yl)]methylamid]
	7 µM	7%	(2-Benzyl,3-t-butylsulfonyl)propionyl-Val-(Cyclohexylmethyl,dihydroxyboryl)methylamid [Beispiel 28]
64%			CCCC(NC(=O)C(Cc1ccccc1)NC(=O)CC(C)C)C(=O)NC(CC1CCCCC1)B1OC2CC3CC(C3(C)C)C2(C)O1 (stereo not drawn) [Beispiel 12, Iva-Phe-Nva-[Cyclohexylmethyl, (-)-Pinandioxyboryl]methylamid]
		59%	[3-t-Butylsulfonyl,2,(2-thienylmethyl)]propionyl-Thi-(Cyclohexylmethyl,dihydroxyboryl)methylamid [Beispiel 31]
53%			CCC[C@H](NC(=O)C(Cc1ccccc1)CS(=O)(=O)C(C)(C)C)C(=O)NC(B1OC(C)(C)C(C)(C)O1)C(C)CC (some centres unmarked) [Beispiel 50, (2-Benzyl,3-t-butylsulfonyl)propionyl-Nva-[2-Methyl,1-(4,4,5,5-tetramethyl-1,3,2-dioxaborolan-2-yl)]butylamid]
11%	9 µM		CC(C)[C@H](NC(=O)C(Cc1ccccc1)CS(=O)(=O)C(C)(C)C)C(=O)NC(CC1CCCCC1)B1OC(C)(C)C(C)(C)O1 (some centres unmarked) [Beispiel 38, (2-Benzyl,3-t-butylsulfonyl)propionyl-Val-[Cyclohexylmethyl,(4,4,5,5-tetramethyl-1,3,2-dioxaborolan-2-yl)]methylamid]
		77%	(3-t-Butylsulfonyl)propionyl-Nva-(1-Naphthylmethyl, dihydroxyboryl)methylamid [Beispiel 27]
10%	10 µM		CC1(C)OB(C(CC2CCCCC2)NC(=O)[C@H](CC(N)=O)NC(=O)C(Cc2cccc3ccccc23)CS(=O)(=O)C(C)(C)C)OC1(C)C (some centres unmarked) [Beispiel 53, [3-t-Butylsulfonyl,2-(1-naphthylmethyl)]propionyl-Asn-[cyclohexylmethyl,(4,4,5,5-tetramethyl-1,3,2-dioxaborolan-2-yl)]methylamid]
